Here are results for 1 molecule from PMC6627486, “Ipomoeassin F Binds Sec61α to Inhibit Protein Translocation” (Journal of the American Chemical Society, 2019).

One may read the EC50 as the concentration at which the effect is half-maximal.

This test has as its system secNLuc-ATZ secretion in U2-OS cells. The test can be described thus: U2-OS secNLuc-ATZ secretion assay. To be noted: Homo sapiens, U2OS, 24 h, read-out: secNLuc-ATZ secretion inhibition EC50. It counts as cell-based. The method, then:
The secNLuc-ATZ assay has been described elsewhere.18 Briefly, U2-OS cells stably expressing secNLuc-ATZ were cultured in McCoy’s 5A supplemented with 10% bovine growth serum (Hyclone SH30540.03), 50 units/mL penicillin, and 50 µg/mL streptomycin and plated into 1536-well black, clear-bottom treatment plates (Aurora Microplates #ABI121000A) at 1200 cells/well in 5 µL volume using a Multidrop Combi dispenser (ThermoFisher). Cells were returned to 37 °C for 1 h to adhere and compound or vehicle control was added to wells using a 1536-well pin-tool transfer device (Wako Automation, San Diego). Cells were incubated for 24 h and secNLuc-ATZ-containing media was transferred using an ATS-100 acoustic dispenser (EDC Biosystems, Fremont, CA) from the treatment plate to a white, solid-bottom 1536-well recipient plate (Greiner Bio One #789175-F) containing 3 µL/well of 1X PBS. […]
Cells were incubated at 37 °C for 24 h and secreted luciferase was detected by adding 1 µL of coelenterazine substrate to each well using a BioRAPTR FRD workstation. […]
Luminescence was measured using a ViewLux microplate imager equipped with clear filters.
For cell viability assays, cells were cultured, plated, and treated with test compounds as outlined for the secretion assays. 48 h after treatment, viability was assessed using a CellTiter-Glo assay by adding 3

As to `C/C=C(\C)C(=O)O[C@@H]1[C@@H](O)[C@@H]2O[C@H]3[C@H](O[C@@H](CCCCC)CCCCCCC(=O)CCC(=O)OC[C@@H](O2)[C@H]1OC(=O)/C=C/c1ccccc1)O[C@H](C)[C@H](OC(C)=O)[C@@H]3O` [ipomoeassin F], the EC50 is about 5 nM.
